RP-LC retention time data for 79 molecules are collected here from the METLIN SMRT retention time set (Domingo-Almenara et al. 2019).

The nature of this series: gradient 5% acetonitrile 3 min, to 50% in 2 min, to 85% in 15 min, held 3 min, 100 µL/min. As to conditions: column: Zorbax Extend-C18 2.1 x 50 mm; eluents: water / acetonitrile, 0.1% formic acid. The procedure, abridged: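 Over 3 months, pure standards in mixtures of ~100 molecules were run by HPLC coupled to a quadrupole time-of-flight mass spectrometer in positive and negative ionization mode. The column was a Zorbax Extend-C18 (2.1 × 50 mm, 1.8 μm) at 100 μL/min, eluted with water and acetonitrile each holding 0.1% formic acid, with 40 μL dead and 900 μL dwell volumes. Retention time was determined from adduct peaks chosen by software and checked manually.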
Take `Cc1ccc(NC(=O)c2cn(C)nc2S(=O)(=O)N2CCSCC2)cc1C`: the RP-LC retention time came out at 987 s.

For the molecule `Cn1c(=O)n(C)c2cc(Sc3ccccc3)c(NC(=O)C3CC3)cc21`, the RP-LC retention time amounted to 849 s.

`Cc1ccc(NC(=O)N2CCC(OC3CCN(S(C)(=O)=O)CC3)CC2)cc1` had an RP-LC retention time of 738 s.

Take `CCOc1ccccc1-c1nc(C2CC(=O)N(c3ccc(CC)cc3)C2)no1` (centres undefined): the RP-LC retention time amounted to 1130 s.

In the case of `COc1cccc(-c2nnc(NC(=O)c3ccccc3Br)o2)c1`, the RP-LC retention time was 734 s.

With `CC(=O)N1CCN(c2nc(-c3ccncc3)nc3c2CCC3)CC1`, the RP-LC retention time was found to be 576 s.

Regarding `Cc1ccccc1CNC(=O)c1cc2n(n1)CCCC2`, the RP-LC retention time is 811 s.

`COc1cccc(C2CC(c3ccc(Br)cc3)=NC3(CCN(C(C)=O)CC3)N2)c1O` (centres undefined) gave an RP-LC retention time of 694 s.

`COc1ccc(C2C(C(=O)N3CCN(C)CC3)c3cc(OC)c(OC)cc3C(=O)N2C)cc1` (centres undefined) returned an RP-LC retention time of 640 s.

`CC(C)Oc1ccc(CN2CC(c3nc(-c4ccsc4)nn3C)C2)cc1`: the RP-LC retention time is 696 s.

Regarding `O=C(NC1CC1)c1ccccc1OCC1CCCN(Cc2cn[nH]c2-c2cccs2)C1` (centres undefined), the RP-LC retention time came to 615 s.

For the molecule `CCCOc1ccc(-c2nc(N3CCCCCC3)c3ccccc3n2)cc1`, the RP-LC retention time turned out to be 971 s.

Consider `CCN1CCN(Cc2ccc(-c3cc4c(N[C@H](C)c5ccccc5)ncnc4[nH]3)cc2)CC1`, for which the RP-LC retention time came out at 628 s.

Consider `CCOC(=O)c1sc(NC(C)=O)nc1-c1ccccc1`, for which the RP-LC retention time came out at 848 s.

`CCOC(=O)C1CCN(C(=O)CCCn2c(=O)c3cccn3c3ccc(Br)cc32)CC1` registered an RP-LC retention time of 974 s.

Regarding `COc1ccc(NC(=O)C2CCN(S(=O)(=O)c3cc(-c4noc(C)n4)cs3)CC2)cc1OC`, the RP-LC retention time amounted to 814 s.

`Cc1sc(S(=O)(=O)N2CCSCC2)cc1NC(=O)c1ccc(C(C)(C)C)cc1` registered an RP-LC retention time of 1150 s.

In turn, `COc1cccc(-n2c(=O)c(C(=O)Nc3cccc(F)c3)c(O)c3cccnc32)c1` yielded an RP-LC retention time of 1250 s.

Take `COc1ccc(OC)c(CNC(=O)c2cccc3c2SCCC3=O)c1`: the RP-LC retention time amounted to 801 s.

`CCn1cc(CCNC(=O)Cc2cccs2)c2cccnc21` came in with an RP-LC retention time of 651 s.

The molecule `CCCCn1cc(S(=O)(=O)Nc2cccc(Cl)c2)c2cccnc21` gave an RP-LC retention time of 1020 s.

Consider `Cc1cc(C)cc(-c2nnc(Cc3nc(-c4ccccc4)no3)o2)c1`, for which the RP-LC retention time was determined as 1130 s.

As for `O=C([C@@H]1C[C@H](F)CN1S(=O)(=O)c1ccc(F)cc1F)N1CCCCC1`, the RP-LC retention time is 812 s.

Regarding `O=C1CSc2ccc(S(=O)(=O)N3CCC(C(=O)NC4CC4)CC3)cc2N1`, the RP-LC retention time came out at 662 s.

Regarding `CC(NC(=O)c1ccco1)c1nc(-c2ccc(Oc3ccccc3)cc2)no1` (centres undefined), the RP-LC retention time worked out at 1030 s.

Molecule `CC(NC(=O)c1ccc2c(c1)OCO2)C(=O)Nc1nc2ccccc2[nH]1` (centres undefined) had an RP-LC retention time of 623 s.

In turn, `CCCC(=O)Nc1nc2ccc(CCC(=O)N3CCN(c4ccccn4)CC3)cc2s1` showed an RP-LC retention time of 603 s.

On to `O=C(NCCc1ccccc1)C(=O)NCC(c1ccc2c(c1)OCO2)N1CCOCC1` (centres undefined), for which the RP-LC retention time was 672 s.

`COC(=O)C1=CN(c2ccccc2OC)c2ccccc2S1(=O)=O` registered an RP-LC retention time of 824 s.

Turning to `O=C1/C(=C/c2ccsc2)CC/C1=C\c1cccs1`, the RP-LC retention time was 1280 s.

`CC(=O)N1CCCSc2ccc(S(=O)(=O)N3CCCC3)cc21` showed an RP-LC retention time of 774 s.

`COc1ccc2c(=O)oc3c(OC)cc(CCN(C)C)c4c(=O)oc1c2c34` had an RP-LC retention time of 689 s.

The molecule `COc1cccc(-c2cc(NCc3ccc4c(c3)OCO4)nc(N)n2)c1` came in with an RP-LC retention time of 768 s.

The molecule `Cc1ccccc1CC(=O)Nc1nnc(SCc2nnc(-c3ccccc3)o2)s1` came in with an RP-LC retention time of 908 s.

`c1ccc(Sc2ncnc3ccccc23)cc1`: the RP-LC retention time turned out to be 1050 s.

In turn, `Cc1noc(C)c1-c1ccc(S(=O)(=O)NC(C)C)cc1` returned an RP-LC retention time of 812 s.

In turn, `COc1ccc2[nH]cc(CCNC(=O)C(C)C3CCN(S(=O)(=O)c4cccs4)CC3)c2c1` (centres undefined) gave an RP-LC retention time of 827 s.

`COc1ccc(-c2noc(CN3C(=O)COc4ccc(C)cc43)n2)cc1OC` showed an RP-LC retention time of 934 s.

Take `Cc1cc(C)c(S(=O)(=O)N2CCc3c(c(-c4nnc(-c5ccccc5)o4)nn3C)C2)c(C)c1`: the RP-LC retention time is 1090 s.

On to `CCn1cnc2cc(CNC(=O)c3ccc(C(F)(F)F)cc3)ccc21`, for which the RP-LC retention time came to 651 s.

Turning to `CC(=O)N1CCc2cc(-c3ccc(C(=O)NCCCN4CCCC4=O)cc3)ccc21`, the RP-LC retention time amounted to 672 s.

The molecule `CN(C)CCCNC(=O)C1CCN(c2nc3ccc(-c4ccccc4)nc3s2)CC1` showed an RP-LC retention time of 668 s.

With `Cc1ccc(NC(=O)CN2C(=O)CCCc3cc(S(=O)(=O)N4CCCC4)ccc32)cc1Cl`, the RP-LC retention time worked out at 943 s.

As for `Cc1cc(C)n(-c2ccnc(N3CCC(C(=O)NC4CC4)CC3)n2)n1`, the RP-LC retention time stood at 693 s.

Molecule `CSc1ccc(NC(=O)Nc2cc(C)ccn2)cc1` yielded an RP-LC retention time of 782 s.

With `Cn1cc(C(=O)NC2CCCCCC2)c2nn(-c3ccccc3)c(=O)c-2c1`, the RP-LC retention time stood at 995 s.

The molecule `CC(=O)Nc1ccc(NC(=O)c2ccc3noc(-c4ccc(Cl)cc4)c3c2)cc1` came in with an RP-LC retention time of 817 s.

Molecule `COc1ccc2c(c1)C1(CCN(C(=O)CC(C)(C)C)C1)C(=O)N2` (centres undefined) came in with an RP-LC retention time of 725 s.

Molecule `NC(=O)C(c1ccccc1)(c1ccccc1)[C@@H]1CCN(CCc2ccc3c(c2)CCO3)C1` showed an RP-LC retention time of 740 s.

With `COC(=O)c1ccc(NC(=O)COc2cc(C)nc(N3CCCC3)n2)cc1`, the RP-LC retention time came out at 638 s.

With `O=C(CCC1CCN(c2cc(NC3CC3)ncn2)CC1)NCc1ccc(F)c(Cl)c1`, the RP-LC retention time was 712 s.

Take `COc1ccc(Cl)cc1N1CC(c2nc(-c3ccccn3)no2)CC1=O` (centres undefined): the RP-LC retention time was 724 s.

`O=C(Cn1nc(S(=O)(=O)c2ccc(Cl)cc2)ccc1=O)N1CCN(c2ccc(F)cc2)CC1` displayed an RP-LC retention time of 910 s.

In the case of `CCCN1C(=O)c2c(C(=O)NCCc3ccccc3C)ncn2CC1(C)C(=O)NCCC(C)C` (centres undefined), the RP-LC retention time turned out to be 900 s.

Molecule `CCOc1ccc(C(=O)N2CCN(c3nc(CN4CCOCC4)cs3)CC2)cc1` returned an RP-LC retention time of 615 s.

The molecule `Cc1ccc(N2C(=O)C3N=NN(Cc4nc(-c5ccc(OC(C)C)cc5)no4)C3C2=O)cc1Cl` (centres undefined) displayed an RP-LC retention time of 1170 s.

`O=C(NCCc1ccco1)C1CCCN(c2nc3ccccc3n(Cc3ccccc3)c2=O)C1` (centres undefined) gave an RP-LC retention time of 1090 s.

For the molecule `O=C1CCC2(CCN1)CCN(S(=O)(=O)c1ccc(Cl)c(Cl)c1)CC2`, the RP-LC retention time was 839 s.

With `CC(Oc1cccc(F)c1)C(=O)NCCOc1ccccc1` (centres undefined), the RP-LC retention time came out at 857 s.

Molecule `CSc1ccc(-c2nc3nc(C)cc(C)n3c2Nc2ccccc2C)cc1` showed an RP-LC retention time of 785 s.

In turn, `COc1ccc(-c2nc(-c3nnn(-c4ccccc4)c3C)no2)cc1OC` gave an RP-LC retention time of 892 s.

The molecule `Fc1cccc(-c2nnc(C(c3cccc(Cl)c3)N3CCN(c4ccccn4)CC3)o2)c1` (centres undefined) displayed an RP-LC retention time of 774 s.

In turn, `Cn1cnc(S(=O)(=O)N2CCC(Cc3nncn3-c3ccccc3)CC2)c1` gave an RP-LC retention time of 629 s.

Take `COc1ccc(C)cc1NC(=O)Cn1nc2cc(-c3ccccc3)nc(C)n2c1=O`: the RP-LC retention time came out at 752 s.

`CCC(CC)C(=O)Nc1nc(-c2ccccc2)c(-c2ccccc2)o1` displayed an RP-LC retention time of 1040 s.

`CCOC(=O)Cn1c(C2CC(=O)N(c3ccc(F)cc3)C2)nc2ccccc21` (centres undefined) had an RP-LC retention time of 766 s.

For `COc1ccc(S(=O)(=O)N2CC3CN(C(=O)C4CCOC4)CC(C2)O3)cc1` (centres undefined), the RP-LC retention time was found to be 659 s.

On to `COc1ccc(NC(=O)Cn2nc3nc(N4CCCC(C)C4)ccn3c2=O)cc1Cl` (centres undefined), for which the RP-LC retention time was 717 s.

In the case of `Cc1ccc2nc(C(=O)N3CCN(c4ccccc4Cl)CC3)cn2c1`, the RP-LC retention time is 748 s.

`Cc1noc(-c2ccc(OC3CN(S(=O)(=O)c4cccc5nsnc45)C3)cc2)n1`: the RP-LC retention time turned out to be 932 s.

The molecule `CCn1nccc1-c1cccc(-c2noc(C3CCN(S(=O)(=O)c4ccc(C)cc4)CC3)n2)c1` gave an RP-LC retention time of 1170 s.

Consider `O=C(N[C@@H]1CN(c2ncccn2)C[C@H]1CO)c1ccoc1`, for which the RP-LC retention time was found to be 567 s.

With `O=C(c1ccc(F)cc1F)N1CCC2(CC1)N=C(c1ccc(Cl)cc1)NO2`, the RP-LC retention time worked out at 900 s.

As to `CC(C)c1ncc(CO)n1Cc1c(Cl)cccc1Cl`, the RP-LC retention time worked out at 663 s.

Molecule `COCCNC(=O)N1CCN(Cc2nc3cc(C(=O)N(C)C)ccc3o2)CC1` had an RP-LC retention time of 559 s.

Molecule `Cc1coc2c(C)c3oc(=O)c(CCC(=O)N4CCN(c5ccccn5)CC4)c(C)c3cc12` gave an RP-LC retention time of 795 s.

In the case of `Cc1nn(CC(=O)N2CCc3ccccc32)c(=O)c2nn(-c3ccccc3)c(C)c12`, the RP-LC retention time is 1050 s.

Turning to `COc1ccc(C(=O)N2CCC(n3c(-c4ccco4)nc4cccnc43)C2)cc1OC` (centres undefined), the RP-LC retention time turned out to be 644 s.

Molecule `CCOc1ccc(C(=O)NC2(c3nc(-c4cccnc4)no3)CCCCC2)cc1OCC` yielded an RP-LC retention time of 998 s.
